Results reported in patent US20170190671A1, “BIS(ARYL)CATECHOL DERIVATIVES AS HERBICIDES” (E I DU PONT DE NEMOURS AND COMPANY, priority 2014, published 2017).

Key:
Format in all cases: in vivo
[1] = system: Italian ryegrass (Lolium multiflorum); test: Test C postemergence; settings: Lolium multiflorum, post-emergence, 336 h, Postemergence, scale 0 to 100, read-out: Plant response rating, Ryegrass, Italian
Outline: (§1)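 Seeds sown in a loam soil and sand blend were treated preemergence; plants in peat-moss/vermiculite medium were sprayed at the 1- to 4-leaf stage (2-18 cm). Chemicals were in a non-phytotoxic surfactant-containing solvent. After 13 to 15 days in a greenhouse, injury was visually rated against controls on a 0-100 scale.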

[2] = system: barnyardgrass (Echinochloa crus-galli); test: Test C postemergence; settings: Echinochloa crus-galli, post-emergence, Postemergence, scale 0 to 100, read-out: Plant response rating, Barnyardgrass
Outline: as §1

[3] = system: blackgrass (Alopecurus myosuroides); test: Test C postemergence; settings: Alopecurus myosuroides, post-emergence, 336 h, Postemergence, scale 0 to 100, read-out: Plant response rating, Blackgrass
Outline: as §1

corn (Zea mays) = test: Test C postemergence; settings: Zea mays, post-emergence, 336 h, Postemergence, scale 0 to 100
Outline: as §1

[4] = system: giant foxtail (Setaria faberii); test: Test C postemergence; settings: Setaria faberi, post-emergence, 336 h, Postemergence, scale 0 to 100, read-out: Plant response rating, Foxtail, Giant
Outline: as §1

[5] = system: johnsongrass (Sorghum halepense); test: Test C postemergence; settings: Sorghum halepense, post-emergence, 336 h, Postemergence, scale 0 to 100, read-out: Plant response rating, Johnsongrass
Outline: as §1

[6] = system: lambsquarters (Chenopodium album); test: Test C postemergence; settings: Chenopodium album, post-emergence, 336 h, Postemergence, scale 0 to 100, read-out: Plant response rating, Lambsquarters
Outline: as §1

[7] = system: large (Lg) crabgrass (Digitaria sanguinalis); test: Test C postemergence; settings: Digitaria sanguinalis, post-emergence, 336 h, Postemergence, scale 0 to 100, read-out: Plant response rating, Crabgrass, Large
Outline: as §1

[8] = system: morningglory (Ipomoea coccinea); test: Test C postemergence; settings: Ipomoea, post-emergence, 336 h, Postemergence, scale 0 to 100, read-out: Plant response rating, Morningglory
Outline: as §1

[9] = system: oilseed rape (Brassica napus); test: Test C postemergence; settings: Brassica napus, post-emergence, Postemergence, scale 0 to 100, read-out: Plant response rating, Oilseed Rape
Outline: as §1

[10] = system: ragweed (common ragweed, Ambrosia elatior); test: Test C postemergence; settings: Ambrosia artemisiifolia, post-emergence, 336 h, Postemergence, scale 0 to 100, read-out: Plant response rating, Ragweed
Outline: as §1

soybean (Glycine max) = test: Test C postemergence; settings: Glycine max, post-emergence, Postemergence, scale 0 to 100, read-out: Plant response rating, Soybean
Outline: as §1

[11] = system: velvetleaf (Abutilon theophrasti); test: Test C postemergence; settings: Abutilon theophrasti, post-emergence, Postemergence, scale 0 to 100, read-out: Plant response rating, Velvetleaf
Outline: as §1

[12] = system: winter wheat (Triticum aestivum); test: Test C postemergence; settings: Triticum aestivum, post-emergence, 336 h, Postemergence, scale 0 to 100, read-out: Plant response rating, Wheat
Outline: as §1

[13] = system: arrowleaf sida (Sida rhombifolia); test: Test E preemergence; settings: scale 0 to 100
Outline: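 Visual ratings from 0 = no effect to 100 = complete control, scored against untreated controls after 14 to 21 days in the greenhouse. Compounds, in a non-phytotoxic solvent mix with surfactant, went onto silt loam soil right after sowing (preemergence) or onto 2–18 cm plants at the 1- to 4-leaf stage (postemergence).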

N#Cc1cccc(Oc2ncc(Cl)cn2)c1Oc1ncc(C(F)(F)F)cn1 [Compound 38, 3-[(5-chloro-2-pyrimidinyl)oxy]-2-[[5-(trifluoromethyl)-2-pyrimidinyl]oxy]-benzonitrile]
pest or weed control at 31 g/ha ([1]; 31 g ai/ha): 5% | pest or weed control at 62 g/ha ([1]; 62 g ai/ha): 5% | pest or weed control at 125 g/ha ([1]; 125 g ai/ha): 5% | pest or weed control at 16 g/ha ([2]; 16 g ai/ha): 10% | pest or weed control at 31 g/ha ([2]; 31 g ai/ha): 20% | pest or weed control at 62 g/ha ([2]; 62 g ai/ha): 20% | pest or weed control at 125 g/ha ([2]; 125 g ai/ha): 35% | pest or weed control at 16 g/ha ([3]; 16 g ai/ha): 0% | pest or weed control at 31 g/ha ([3]; 31 g ai/ha): 0% | pest or weed control at 62 g/ha ([3]; 62 g ai/ha): 10% | pest or weed control at 125 g/ha ([3]; 125 g ai/ha): 15% | Corn plant response rating (crop injury, 0 = no effect, 100 = complete kill) at 16 g/ha (corn (Zea mays); 16 g ai/ha): 10% | Corn plant response rating (crop injury, 0 = no effect, 100 = complete kill) at 31 g/ha (corn (Zea mays); 31 g ai/ha): 20% | Corn plant response rating (crop injury, 0 = no effect, 100 = complete kill) at 62 g/ha (corn (Zea mays); 62 g ai/ha): 15% | Corn plant response rating (crop injury, 0 = no effect, 100 = complete kill) at 125 g/ha (corn (Zea mays); 125 g ai/ha): 15% | pest or weed control at 16 g/ha ([4]; 16 g ai/ha): 5% | pest or weed control at 31 g/ha ([4]; 31 g ai/ha): 10% | pest or weed control at 62 g/ha ([4]; 62 g ai/ha): 10% | pest or weed control at 125 g/ha ([4]; 125 g ai/ha): 25% | pest or weed control at 16 g/ha ([5]; 16 g ai/ha): 5% | pest or weed control at 31 g/ha ([5]; 31 g ai/ha): 5% | pest or weed control at 62 g/ha ([5]; 62 g ai/ha): 5% | pest or weed control at 125 g/ha ([5]; 125 g ai/ha): 10% | pest or weed control at 16 g/ha ([6]; 16 g ai/ha): 65% | pest or weed control at 31 g/ha ([6]; 31 g ai/ha): 70% | pest or weed control at 62 g/ha ([6]; 62 g ai/ha): 80% | pest or weed control at 125 g/ha ([6]; 125 g ai/ha): 90% | pest or weed control at 16 g/ha ([7]; 16 g ai/ha): 5% | pest or weed control at 31 g/ha ([7]; 31 g ai/ha): 10% | pest or weed control at 62 g/ha ([7]; 62 g ai/ha): 10% | pest or weed control at 125 g/ha ([7]; 125 g ai/ha): 30% | pest or weed control at 31 g/ha ([8]; 31 g ai/ha): 85% | pest or weed control at 62 g/ha ([8]; 62 g ai/ha): 85% | pest or weed control at 125 g/ha ([8]; 125 g ai/ha): 90% | plant injury at 31 g/ha ([9]; 31 g ai/ha): 20% | plant injury at 62 g/ha ([9]; 62 g ai/ha): 25% | plant injury at 125 g/ha ([9]; 125 g ai/ha): 5% | pest or weed control at 31 g/ha ([10]; 31 g ai/ha): 55% | pest or weed control at 62 g/ha ([10]; 62 g ai/ha): 70% | pest or weed control at 125 g/ha ([10]; 125 g ai/ha): 50% | plant injury at 31 g/ha (soybean (Glycine max); 31 g ai/ha): 85% | plant injury at 62 g/ha (soybean (Glycine max); 62 g ai/ha): 50% | plant injury at 125 g/ha (soybean (Glycine max); 125 g ai/ha): 80% | pest or weed control at 31 g/ha ([11]; 31 g ai/ha): 65% | pest or weed control at 62 g/ha ([11]; 62 g ai/ha): 55% | pest or weed control at 125 g/ha ([11]; 125 g ai/ha): 60% | plant injury at 31 g/ha ([12]; 31 g ai/ha): 0% | plant injury at 62 g/ha ([12]; 62 g ai/ha): 0% | plant injury at 125 g/ha ([12]; 125 g ai/ha): 0% | Plant response rating, Arrowleaf Sida ([13]; 16 g ai/ha): 60 | Plant response rating, Arrowleaf Sida ([13]; 31 g ai/ha): 50 | Plant response rating, Arrowleaf Sida ([13]; 62 g ai/ha): 80 | Plant response rating, Arrowleaf Sida ([13]; 125 g ai/ha): 100
